pIC50, pKi: −log10 of the molar value.
Columns and labels:
CDK5 (CDK5/p25) = molecular target: T1, CDK5 (CDK5/p25) (Homo sapiens, UniProt Q00535); test: in vitro kinase inhibition assay; type: biochemical
T1 construct: with p25

[1] = molecular target: T2, peroxisome proliferator-activated receptor γ (PPARγ) (Homo sapiens, UniProt P37231); test: ([…] Å); competitive TR-FRET binding assay
T2 construct: gene PPARG
T2 sequence (P37231 223-505): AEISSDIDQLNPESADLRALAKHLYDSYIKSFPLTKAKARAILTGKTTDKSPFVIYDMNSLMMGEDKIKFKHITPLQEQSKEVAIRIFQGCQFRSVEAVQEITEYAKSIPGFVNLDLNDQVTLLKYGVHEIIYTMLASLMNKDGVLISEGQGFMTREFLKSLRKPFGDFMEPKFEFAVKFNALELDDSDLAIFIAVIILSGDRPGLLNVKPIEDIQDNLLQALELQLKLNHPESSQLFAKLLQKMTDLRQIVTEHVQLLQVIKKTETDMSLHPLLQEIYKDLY

PPARγ = molecular target: T3, PPARγ (Homo sapiens, UniProt P37231); test: competitive TR-FRET binding assay (Lanthascreen)
T3 construct: gene PPARG
T3 sequence (P37231 1-505): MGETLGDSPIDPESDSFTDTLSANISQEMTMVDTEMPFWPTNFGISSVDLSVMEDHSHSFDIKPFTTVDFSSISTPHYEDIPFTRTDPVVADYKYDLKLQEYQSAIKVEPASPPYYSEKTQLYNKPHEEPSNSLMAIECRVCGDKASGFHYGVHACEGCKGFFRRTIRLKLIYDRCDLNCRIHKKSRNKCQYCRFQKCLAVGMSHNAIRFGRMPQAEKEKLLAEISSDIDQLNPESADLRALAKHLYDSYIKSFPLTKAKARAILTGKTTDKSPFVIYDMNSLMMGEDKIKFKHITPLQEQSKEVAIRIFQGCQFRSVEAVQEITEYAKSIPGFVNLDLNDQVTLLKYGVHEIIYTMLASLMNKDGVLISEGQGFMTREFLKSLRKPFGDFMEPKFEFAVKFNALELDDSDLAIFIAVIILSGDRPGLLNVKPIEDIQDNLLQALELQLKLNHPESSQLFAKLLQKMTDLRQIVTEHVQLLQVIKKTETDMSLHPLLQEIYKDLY

T1 sequence (Q00535 whole entry): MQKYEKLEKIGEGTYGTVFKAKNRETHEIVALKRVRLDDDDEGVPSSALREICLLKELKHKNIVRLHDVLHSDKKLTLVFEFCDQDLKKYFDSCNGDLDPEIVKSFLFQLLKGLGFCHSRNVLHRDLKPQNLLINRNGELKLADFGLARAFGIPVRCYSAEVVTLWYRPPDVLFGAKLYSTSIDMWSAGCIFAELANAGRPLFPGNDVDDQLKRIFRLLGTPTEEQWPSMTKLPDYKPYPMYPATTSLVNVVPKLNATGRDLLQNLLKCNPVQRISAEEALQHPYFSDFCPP
T1 sequence (Q15078 2-307 partner): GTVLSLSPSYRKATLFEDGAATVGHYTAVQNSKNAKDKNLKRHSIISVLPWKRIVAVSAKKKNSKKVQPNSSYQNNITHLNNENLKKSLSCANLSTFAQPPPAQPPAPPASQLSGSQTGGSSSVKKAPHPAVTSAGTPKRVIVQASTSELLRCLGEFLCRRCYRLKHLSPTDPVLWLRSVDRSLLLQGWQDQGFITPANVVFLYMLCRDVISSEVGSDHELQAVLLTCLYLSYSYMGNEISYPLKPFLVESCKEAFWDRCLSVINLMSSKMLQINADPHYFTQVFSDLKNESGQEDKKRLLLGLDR

| Compound | pIC50 (CDK5 (CDK5/p25)) | pKi [1] | pKi (PPARγ) |
| --- | --- | --- | --- |
| COC(=O)[C@]1(Cc2ccc(O)c(CC=C(C)C)c2)OC(=O)C(O)=C1c1ccc(O)cc1 [butyrolactone I] | 6.77 | 5.58 |  |
| COc1ccc(Cl)cc1C(=O)NCCc1ccc(S(=O)(=O)NC(=O)NC2CCCCC2)cc1 [glibenclamide] |  |  | 5.93 |

From article PMC7072624 (Biomolecules, 2020)
